The test system of the assay is Bombyx mori. Kind of assay: Insecticidal activity against po dosed larvae of Bombyx mori assessed per gram of diet. It counts as functional.
Compound `CO[C@@H]1[C@]2(O)C(=O)N3/C=C\C(C)(C)c4[nH]c5ccccc5c4/C=C\3C(=O)N2[C@]23[C@H](C)C(C)(C)N2c2ccccc2[C@]13O` [OKARAMINE B] returned an LD50 of 0.2 mg/kg.

Take `C=CC(C)(C)c1[nH]c2ccccc2c1CC1NC(=O)[C@H]2C[C@@]3(O)c4ccccc4N(C(C)(C)C=C)[C@H]3N2C1=O` (stereo partly drawn) [OKARAMINE C]: the LD50 worked out at 7 mg/kg.

Regarding `C=CC(C)(C)N1c2ccccc2[C@]2(O)C[C@@H]3C(=O)N4/C=C\C(C)(C)c5[nH]c6ccccc6c5/C=C\4C(=O)N3[C@H]12` [OKARAMINE A], the LD50 came out at 8 mg/kg.
